Measurements taken from patent US10800791B2, “Triazole ACC inhibitors and uses thereof” (Gilead Apollo, LLC, priority 2015, dated 2020).
≈ marks a conversion by molar mass, not a printed value. Read-outs that look alike come from different tables or passages of the source.

Columns and labels:
human (hACC2) = human (hACC2) (Homo sapiens, UniProt O00763); assay: In vitro ACC inhibition assay (ADP-Glo), hACC2; format: biochemical; conditions: 5 nM ACC2, 20 μM ATP, 20 μM acetyl-CoA
Procedure: The detailed procedure is as follows. […] 10 μL ADP glo reagent was added. […] 20 μL kinase detection reagent was added.

Rhizoctonia solani (Rs) = assay: Growth inhibition assay of fungal pathogens, Rs; format: cell-based; conditions: 48 h
Procedure: Compounds of the present invention were evaluated in a growth inhibition assay to determine the ability to control the growth of fungal pathogens, such as Botrtyis cinerea (Bc), Collectotrichum graminicola (Cg), Diplodia maydis (Dm), Fusarium moniliforme (Fm), Fusarium virguliforme (Fv), Phytophthora capsici (Pc), Rhizoctonia solani (Rs), and Septoria tritici (St).
Compounds to be tested were dissolved in DMSO at 2.5 mg/ml to produce compound stock solutions (“stocks”). Stocks were diluted with DMSO by a five-fold dilution in a 96-well stock plate, and two sets of final concentrations of 50, 10, and 2 ppm or 2, 0.4, and 0.08 ppm were obtained in vitro. A set of positive controls was also prepared, with various concentrations of Soraphen (2, 0.4, and 0.08 ppm), Metalaxyl (1.1, 0.22, and 0.04 ppm), and Metconazole (2, 0.4, and 0.08 ppm or 0.2, 0.04, and 0.008 ppm) after the five-fold dilutions. Negative controls on each plate included 2% DMSO, water, and a blank (media+2% DMSO).
Fungal spores were isolated from previously sub-cultured plates of Botrtyis cinerea (Bc), Collectotrichum graminicola (Cg), Diplodia maydis (Dm), Fusarium moniliforme (Fm), Fusarium virguliforme (Fv), Phytophthora capsici (Pc), and Septoria tritici (St). The isolated spores were diluted to individual concentrations with a 17% V8 liquid media. For Rhizoctonia solani (Rs) and Pythium irregulare, 1.5 mm mycelial plugs were used in place of spores and/4 Potato Dextrose Broth (PDB) was used for dilution. The spore concentrations and plug sizes were based on growth curves generated at 48 hours for each pathogen.
In a second 96-well plate, the spores or mycelial plugs, media, diluted compound solutions, and controls were combined. Once the compound was added, a true final concentration of compound in each well was measured by an OD600 reading, which adjusted for any compound precipitation that might have occurred in the well. Plate readings were repeated at both 24 and 48 hours. The blank negative control was used as a background subtraction. Additional visual ratings were performed at both 24 and 48 hours for checking on precipitation and confirming efficacy. Visual and OD600 ratings of the compounds at 48 hours were compared to the 2% DMSO negative control, and the percent of pathogen growth inhibition was determined based on those values.

fungal (fACC2) = fungal (fACC2) (UniProt Q00955); conditions: read-out: fACC2 (in vitro ACC2 Inhibition Assay, IC50); Table 2b, additional results; ADP-Glo, 5 nM ACC2, 20 μM ATP, 20 μM acetyl-CoA
fungal (fACC2), sequence (Q00955 whole entry): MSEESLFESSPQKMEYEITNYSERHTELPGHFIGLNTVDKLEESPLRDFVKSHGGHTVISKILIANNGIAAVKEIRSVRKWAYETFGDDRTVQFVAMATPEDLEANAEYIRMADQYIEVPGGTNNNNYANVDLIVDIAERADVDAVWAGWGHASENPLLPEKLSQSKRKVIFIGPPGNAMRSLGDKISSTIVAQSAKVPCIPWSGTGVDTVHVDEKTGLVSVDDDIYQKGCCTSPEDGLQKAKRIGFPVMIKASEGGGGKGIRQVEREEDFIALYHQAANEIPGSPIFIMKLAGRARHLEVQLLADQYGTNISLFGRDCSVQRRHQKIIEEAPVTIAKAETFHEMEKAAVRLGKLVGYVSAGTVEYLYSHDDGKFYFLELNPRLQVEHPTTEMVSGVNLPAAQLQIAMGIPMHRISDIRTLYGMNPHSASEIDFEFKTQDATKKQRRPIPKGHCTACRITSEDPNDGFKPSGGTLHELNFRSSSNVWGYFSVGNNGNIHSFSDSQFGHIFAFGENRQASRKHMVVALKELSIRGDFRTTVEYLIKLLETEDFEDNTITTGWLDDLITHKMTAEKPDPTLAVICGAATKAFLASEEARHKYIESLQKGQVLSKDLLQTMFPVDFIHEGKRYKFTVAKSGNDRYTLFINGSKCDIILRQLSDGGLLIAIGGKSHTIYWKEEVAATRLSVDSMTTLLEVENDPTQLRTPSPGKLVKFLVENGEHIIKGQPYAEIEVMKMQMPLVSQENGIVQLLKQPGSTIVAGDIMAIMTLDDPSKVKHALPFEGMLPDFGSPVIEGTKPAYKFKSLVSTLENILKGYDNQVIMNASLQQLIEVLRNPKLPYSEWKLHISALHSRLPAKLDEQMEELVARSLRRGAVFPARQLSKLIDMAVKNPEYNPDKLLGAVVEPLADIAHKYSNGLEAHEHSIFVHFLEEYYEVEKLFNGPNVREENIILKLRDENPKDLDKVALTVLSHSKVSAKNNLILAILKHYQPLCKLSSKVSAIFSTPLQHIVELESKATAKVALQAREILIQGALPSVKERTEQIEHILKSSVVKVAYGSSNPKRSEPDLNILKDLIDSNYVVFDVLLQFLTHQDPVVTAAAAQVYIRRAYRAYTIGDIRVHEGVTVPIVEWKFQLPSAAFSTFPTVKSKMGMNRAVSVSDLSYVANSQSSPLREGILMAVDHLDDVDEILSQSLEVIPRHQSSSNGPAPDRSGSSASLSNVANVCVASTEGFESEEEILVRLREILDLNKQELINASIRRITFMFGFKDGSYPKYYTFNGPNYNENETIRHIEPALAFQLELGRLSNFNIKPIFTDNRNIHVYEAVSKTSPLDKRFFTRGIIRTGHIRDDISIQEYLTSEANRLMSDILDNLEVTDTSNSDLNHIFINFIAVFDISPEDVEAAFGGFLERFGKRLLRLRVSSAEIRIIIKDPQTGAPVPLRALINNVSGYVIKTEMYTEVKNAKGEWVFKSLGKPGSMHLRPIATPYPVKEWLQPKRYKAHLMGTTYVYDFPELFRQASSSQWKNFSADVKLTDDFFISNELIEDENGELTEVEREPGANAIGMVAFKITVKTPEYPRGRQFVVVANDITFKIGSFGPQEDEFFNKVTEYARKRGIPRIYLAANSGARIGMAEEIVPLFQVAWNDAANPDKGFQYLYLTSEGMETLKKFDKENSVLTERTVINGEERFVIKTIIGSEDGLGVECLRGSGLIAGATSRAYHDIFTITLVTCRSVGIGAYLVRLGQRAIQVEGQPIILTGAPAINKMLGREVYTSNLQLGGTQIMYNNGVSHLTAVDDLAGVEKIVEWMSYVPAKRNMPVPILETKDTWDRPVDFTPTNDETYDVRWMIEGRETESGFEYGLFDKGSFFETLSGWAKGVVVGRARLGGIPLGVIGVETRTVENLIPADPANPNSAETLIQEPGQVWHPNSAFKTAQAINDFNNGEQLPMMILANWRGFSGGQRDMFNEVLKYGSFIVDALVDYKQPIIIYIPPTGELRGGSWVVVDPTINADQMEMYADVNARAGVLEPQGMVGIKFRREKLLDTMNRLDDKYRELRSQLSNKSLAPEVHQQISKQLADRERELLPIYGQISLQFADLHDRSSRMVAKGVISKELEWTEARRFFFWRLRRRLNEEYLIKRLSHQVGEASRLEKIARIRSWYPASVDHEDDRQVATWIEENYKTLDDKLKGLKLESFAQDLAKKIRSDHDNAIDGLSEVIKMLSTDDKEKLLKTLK

C. albicans = assay: Antifungal Activity Assay (broth microtiter MIC), C. albicans; format: cell-based, Candida albicans; conditions: Candida albicans, ATCC90028, 48 h, Table 3b (additional results); ATCC 90028; 3 replicates; MIC recorded at 48 h; read-out: MIC, C. albicans ATCC 90028
Summary of the method: (§1)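 Susceptibility was determined by CLSI M27-A3 broth microdilution in RPMI 1640 buffered with MOPS. Growth inhibition was scored visually after 48 h.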

C. krusei = assay: Antifungal Activity Assay (broth microtiter MIC), C. krusei; format: cell-based, Candida krusei; conditions: Pichia kudriavzevii, ATCC6258, 48 h, Table 3b (additional results); ATCC 6258; 3 replicates; MIC recorded at 48 h; read-out: MIC, C. krusei ATCC 6258
Summary of the method: as §1

C. parapsilosis = assay: Antifungal Activity Assay (broth microtiter MIC), C. parapsilosis; format: cell-based, Candida parapsilosis; conditions: Lodderomyces parapsilosis, ATCC22019, 48 h, Table 3b (additional results); ATCC 22019; 3 replicates; MIC recorded at 48 h; read-out: MIC, C. parapsilosis ATCC 22019
Summary of the method: as §1

[1] = read-out: Concentration at 90% Inhibition Rs, Rhizoctonia solani, mycelial plugs, growth inhibition at 48 hours vs 2% DMSO control
[2] = read-out: Concentration at 90% Inhibition Rs, Rhizoctonia solani, mycelial plugs, growth inhibition vs 2% DMSO control at 48 hours
[3] = mycelial plugs, growth inhibition at 48 hours vs 2% DMSO control, read-out: Concentration at 90% Inhibition Rs
[4] = mycelial plugs, growth inhibition vs 2% DMSO control at 48 hours, read-out: Concentration at 90% Inhibition Rs

human (hACC2), sequence (O00763 whole entry): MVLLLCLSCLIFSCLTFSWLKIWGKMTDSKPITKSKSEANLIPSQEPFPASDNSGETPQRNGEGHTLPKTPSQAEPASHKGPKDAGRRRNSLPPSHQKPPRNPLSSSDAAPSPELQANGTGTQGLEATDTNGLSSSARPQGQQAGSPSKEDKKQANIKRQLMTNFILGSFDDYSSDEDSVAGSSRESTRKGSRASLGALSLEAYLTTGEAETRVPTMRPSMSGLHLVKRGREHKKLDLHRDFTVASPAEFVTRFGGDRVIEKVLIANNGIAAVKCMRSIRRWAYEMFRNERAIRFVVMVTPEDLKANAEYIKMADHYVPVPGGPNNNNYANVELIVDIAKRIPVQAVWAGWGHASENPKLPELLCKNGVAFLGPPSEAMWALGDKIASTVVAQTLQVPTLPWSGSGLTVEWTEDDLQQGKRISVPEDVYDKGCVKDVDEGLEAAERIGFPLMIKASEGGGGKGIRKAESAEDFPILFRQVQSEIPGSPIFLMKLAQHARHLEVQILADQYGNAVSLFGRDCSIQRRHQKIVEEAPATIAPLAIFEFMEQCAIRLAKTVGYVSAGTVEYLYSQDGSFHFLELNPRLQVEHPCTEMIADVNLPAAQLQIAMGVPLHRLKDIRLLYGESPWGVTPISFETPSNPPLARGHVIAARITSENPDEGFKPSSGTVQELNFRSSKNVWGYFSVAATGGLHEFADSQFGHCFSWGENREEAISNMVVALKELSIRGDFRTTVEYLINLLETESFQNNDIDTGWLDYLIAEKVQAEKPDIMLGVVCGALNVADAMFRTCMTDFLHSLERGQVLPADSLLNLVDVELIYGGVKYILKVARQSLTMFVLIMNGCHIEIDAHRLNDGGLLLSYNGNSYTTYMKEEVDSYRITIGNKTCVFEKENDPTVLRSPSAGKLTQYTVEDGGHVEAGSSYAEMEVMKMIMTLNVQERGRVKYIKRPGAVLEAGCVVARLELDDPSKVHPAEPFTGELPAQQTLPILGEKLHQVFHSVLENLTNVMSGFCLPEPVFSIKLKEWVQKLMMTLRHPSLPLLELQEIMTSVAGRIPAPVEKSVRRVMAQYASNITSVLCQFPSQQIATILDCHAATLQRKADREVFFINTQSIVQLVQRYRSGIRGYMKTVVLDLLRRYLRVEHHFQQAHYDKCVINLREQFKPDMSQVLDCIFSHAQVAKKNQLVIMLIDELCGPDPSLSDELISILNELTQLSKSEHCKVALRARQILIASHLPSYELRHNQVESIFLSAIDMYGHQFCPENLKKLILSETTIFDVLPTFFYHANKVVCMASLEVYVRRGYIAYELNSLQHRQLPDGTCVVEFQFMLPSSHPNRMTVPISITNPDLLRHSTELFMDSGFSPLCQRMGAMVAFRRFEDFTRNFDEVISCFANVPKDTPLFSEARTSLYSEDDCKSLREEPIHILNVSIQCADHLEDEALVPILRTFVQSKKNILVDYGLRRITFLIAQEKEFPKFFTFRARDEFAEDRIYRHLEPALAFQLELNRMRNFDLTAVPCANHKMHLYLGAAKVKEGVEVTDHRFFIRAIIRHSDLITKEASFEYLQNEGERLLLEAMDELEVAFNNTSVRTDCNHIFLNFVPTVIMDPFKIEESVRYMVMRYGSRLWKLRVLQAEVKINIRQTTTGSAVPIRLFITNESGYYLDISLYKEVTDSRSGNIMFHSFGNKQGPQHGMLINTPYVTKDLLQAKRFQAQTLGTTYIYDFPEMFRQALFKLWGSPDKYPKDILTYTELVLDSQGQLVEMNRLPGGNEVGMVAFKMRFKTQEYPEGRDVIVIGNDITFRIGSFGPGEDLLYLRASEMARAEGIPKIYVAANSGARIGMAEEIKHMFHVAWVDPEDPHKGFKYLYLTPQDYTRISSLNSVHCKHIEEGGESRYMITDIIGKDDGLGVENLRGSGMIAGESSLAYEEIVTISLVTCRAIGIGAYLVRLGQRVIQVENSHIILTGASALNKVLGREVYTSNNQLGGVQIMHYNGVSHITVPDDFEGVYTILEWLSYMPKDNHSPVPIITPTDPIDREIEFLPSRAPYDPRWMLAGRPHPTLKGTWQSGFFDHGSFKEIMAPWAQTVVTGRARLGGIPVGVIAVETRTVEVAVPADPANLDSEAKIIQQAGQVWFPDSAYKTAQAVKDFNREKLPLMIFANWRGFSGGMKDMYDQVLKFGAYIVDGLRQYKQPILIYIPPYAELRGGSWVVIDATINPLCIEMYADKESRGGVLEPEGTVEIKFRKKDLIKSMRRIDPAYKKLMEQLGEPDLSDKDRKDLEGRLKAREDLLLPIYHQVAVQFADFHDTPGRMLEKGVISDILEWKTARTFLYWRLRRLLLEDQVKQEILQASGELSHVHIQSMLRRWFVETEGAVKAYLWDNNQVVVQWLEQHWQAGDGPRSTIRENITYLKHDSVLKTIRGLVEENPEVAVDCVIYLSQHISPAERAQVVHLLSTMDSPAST

Structure (SMILES)	IC50 (human (hACC2); Table 2a) [µM]	IC50 (human (hACC2); Table 2b, additional results) [µM]	IC90 (Rhizoctonia solani (Rs); [1]) [µg/mL]	IC90 (Rhizoctonia solani (Rs); [2]) [µg/mL]	IC90 (Rhizoctonia solani (Rs); [3]) [µg/mL]	IC90 (Rhizoctonia solani (Rs); [4]) [µg/mL]	IC50 (fungal (fACC2)) [µM]	MIC (C. albicans) [µg/mL]	MIC (C. krusei) [µg/mL]	MIC (C. parapsilosis) [µg/mL]
COc1ccc(F)cc1[C@H](Cn1c(=O)n(C(C)(C)C(=O)NC(C)C)c(=O)c2c(C)c(-n3nccn3)sc21)OCC(C)C [Compound I-10, (R)-2-(1-(2-(5-fluoro-2-methoxyphenyl)-2-isobutoxyethyl)-5-methyl-2,4-dioxo-6-(2H-1,2,3-triazol-2-yl)-1,4-dihydrothieno[2,3-d]pyrimidin-3(2H)-yl)-N-isopropyl-2-methylpropanamide]	0.01 to 0.04	0.01 to 0.04	0.4 (≈ 0.666 µM)	0.4 (≈ 0.666 µM)	–	–	–	–	–	–
COc1ccccc1[C@H](Cn1c(=O)n(C(C)(C)C(=O)NCC(C)C)c(=O)c2c(C)c(-n3nccn3)sc21)OC1CCOCC1 [Compound I-13, (R)—N-isobutyl-2-(1-(2-(2-methoxyphenyl)-2-((tetrahydro-2H-pyran-4-yl)oxy)ethyl)-5-methyl-2,4-dioxo-6-(2H-1,2,3-triazol-2-yl)-1,4-dihydrothieno[2,3-d]pyrimidin-3(2H)-yl)-2-methylpropanamide]	0.005 to 0.01	0.005 to 0.01	–	–	0.08 (≈ 0.128 µM)	0.08 (≈ 0.128 µM)	–	–	–	–
COc1ccccc1[C@H](Cn1c(=O)n(C(C)(C)C(=O)NC(C)C)c(=O)c2c(C)c(-n3nccn3)sc21)OC1CCOCC1 [Compound I-16, (R)—N-isopropyl-2-(1-(2-(2-methoxyphenyl)-2-((tetrahydro-2H-pyran-4-yl)oxy)ethyl)-5-methyl-2,4-dioxo-6-(2H-1,2,3-triazol-2-yl)-1,4-dihydrothieno[2,3-d]pyrimidin-3(2H)-yl)-2-methylpropanamide]	0.005 to 0.01	0.005 to 0.01	0.4 (≈ 0.655 µM)	0.4 (≈ 0.655 µM)	–	–	–	–	–	–
COc1ccccc1[C@H](Cn1c(=O)n(C(C)(C)C(=O)N2CCCCC2)c(=O)c2c(C)c(-n3nccn3)sc21)OC1CCOCC1 [Compound I-17, (R)-1-(2-(2-methoxyphenyl)-2-((tetrahydro-2H-pyran-4-yl)oxy)ethyl)-5-methyl-3-(2-methyl-1-oxo-1-(piperidin-1-yl)propan-2-yl)-6-(2H-1,2,3-triazol-2-yl)thieno[2,3-d]pyrimidine-2,4(1H,3H)-dione]	0.005 to 0.01	0.005 to 0.01	0.08 (≈ 0.126 µM)	0.08 (≈ 0.126 µM)	–	–	–	–	–	–
COc1ccccc1[C@H](Cn1c(=O)n(C(C)(C)C(=O)N2CCCC2)c(=O)c2c(C)c(-n3nccn3)sc21)OC1CCOCC1 [Compound I-18, (R)-1-(2-(2-methoxyphenyl)-2-((tetrahydro-2H-pyran-4-yl)oxy)ethyl)-5-methyl-3-(2-methyl-1-oxo-1-(pyrrolidin-1-yl)propan-2-yl)-6-(2H-1,2,3-triazol-2-yl)thieno[2,3-d]pyrimidine-2,4(1H,3H)-dione]	0.005 to 0.01	0.005 to 0.01	–	–	0.08 (≈ 0.128 µM)	0.08 (≈ 0.128 µM)	–	–	–	–
COc1ccccc1[C@H](Cn1c(=O)n(C(C)(C)C(=O)NC2CCC2)c(=O)c2c(C)c(-n3nccn3)sc21)OC1CCOCC1 [Compound I-20, (R)—N-cyclobutyl-2-(1-(2-(2-methoxyphenyl)-2-((tetrahydro-2H-pyran-4-yl)oxy)ethyl)-5-methyl-2,4-dioxo-6-(2H-1,2,3-triazol-2-yl)-1,4-dihydrothieno[2,3-d]pyrimidin-3(2H)-yl)-2-methylpropanamide]	0.005 to 0.01	0.005 to 0.01	–	–	0.08 (≈ 0.128 µM)	0.08 (≈ 0.128 µM)	–	–	–	–
COc1ccccc1[C@H](Cn1c(=O)n(C(C)(C)C(=O)NC2CCCCC2)c(=O)c2c(C)c(-n3nccn3)sc21)OC1CCOCC1 [Compound I-21, (R)—N-cyclohexyl-2-(1-(2-(2-methoxyphenyl)-2-((tetra-hydro-2H-pyran-4-yl)oxy)ethyl)-5-methyl-2,4-dioxo-6-(2H-1,2,3-triazol-2-yl)-1,4-dihydrothieno[2,3-d]pyrimidin-3(2H)-yl)-2-methylpropanamide]	0.005 to 0.01	0.005 to 0.01	0.4 (≈ 0.615 µM)	0.4 (≈ 0.615 µM)	–	–	–	–	–	–
CCNC(=O)C(C)(C)n1c(=O)c2c(C)c(-n3nccn3)sc2n(C[C@H](OC2CCOCC2)c2cc(F)ccc2OC)c1=O [Compound I-22, (R)—N-ethyl-2-(1-(2-(5-fluoro-2-methoxyphenyl)-2-((tetrahydro-2H-pyran-4-yl)oxy)ethyl)-5-methyl-2,4-dioxo-6-(2H-1,2,3-triazol-2-yl)-1,4-dihydrothieno[2,3-d]pyrimidin-3(2H)-yl)-2-methylpropanamide]	0.005 to 0.01	0.005 to 0.01	–	–	0.4 (≈ 0.651 µM)	0.4 (≈ 0.651 µM)	–	–	–	–
CCOC(=O)[C@H]1CC[C@@H](O[C@@H](Cn2c(=O)n(C(C)(C)C(=O)NC(C)C)c(=O)c3c(C)c(-n4nccn4)sc32)c2cc(F)ccc2OC)CC1 [Compound I-264]	–	0.01 to 0.04	–	–	–	–	0.001 to 0.005	0.25 to 1 (≈ 0.358 to 1.43 µM)	0.06 to 0.249 (≈ 0.0859 to 0.356 µM)	0.25 to 1 (≈ 0.358 to 1.43 µM)
COc1ccc(F)cc1[C@H](Cn1c(=O)n(C(C)(C)C(=O)NC(C)C)c(=O)c2c(C)c(-n3nccn3)sc21)O[C@H]1CC[C@@H](C(=O)O)CC1 [Compound I-265]	–	0.01 to 0.04	–	–	–	–	0.001 to 0.005	0.25 to 1 (≈ 0.373 to 1.49 µM)	0.06 to 0.249 (≈ 0.0895 to 0.371 µM)	0.25 to 1 (≈ 0.373 to 1.49 µM)
CCOC(=O)[C@H]1CC[C@H](O[C@@H](Cn2c(=O)n(C(C)(C)C(=O)NC(C)C)c(=O)c3c(C)c(-n4nccn4)sc32)c2cc(F)ccc2OC)CC1 [Compound I-269]	–	> 0.04	–	–	–	–	0.001 to 0.005	0.25 to 1 (≈ 0.358 to 1.43 µM)	0.06 to 0.249 (≈ 0.0859 to 0.356 µM)	0.25 to 1 (≈ 0.358 to 1.43 µM)
COc1ccc(F)cc1[C@H](Cn1c(=O)n(C(C)(C)C(=O)NC(C)C)c(=O)c2c(C)c(-n3nccn3)sc21)O[C@H]1CC[C@H](C(=O)O)CC1 [Compound I-270]	–	0.01 to 0.04	–	–	–	–	0.0003 to 0.001	0.25 to 1 (≈ 0.373 to 1.49 µM)	0.06 to 0.249 (≈ 0.0895 to 0.371 µM)	0.25 to 1 (≈ 0.373 to 1.49 µM)
COc1ccc(F)cc1[C@H](Cn1c(=O)n(C(C)(C)C(=O)NC(C)C)c(=O)c2c(C)c(-n3nccn3)sc21)OC[C@H](C)C(=O)O [Compound I-273]	–	> 0.04	–	–	–	–	0.0003 to 0.001	0.25 to 1 (≈ 0.396 to 1.59 µM)	0.25 to 1 (≈ 0.396 to 1.59 µM)	1.01 to 2 (≈ 1.6 to 3.17 µM)
COc1ccc(F)cc1[C@H](Cn1c(=O)n(C(C)(C)C(=O)NC(C)C)c(=O)c2c(C)c(-n3nccn3)sc21)OC[C@@H](C)C(=O)O [Compound I-274]	–	> 0.04	–	–	–	–	0.0003 to 0.001	0.25 to 1 (≈ 0.396 to 1.59 µM)	0.25 to 1 (≈ 0.396 to 1.59 µM)	1.01 to 2 (≈ 1.6 to 3.17 µM)
